In US9155694B2, “Stabilized composition comprising at least one adrenergic compound” (ALK AG, priority 2009, dated 2015):

How the values were obtained:
[1] = Further stability testing, thermal stress at 60° C. protected from light (Example 3); format: physicochemical
Protocol: (§1) The formulation solutions were prepared at a level of 1.0 mg/ml adrenaline (in the form of the tartrate), pH 3.4 containing 0.6% sodium chloride, with various molar ratios (0.25-0.59) of sodium metabisulfite added. The metabisulfite/adrenaline molar ratios tested were 0.25, 0.34, 0.42, 0.5 and 0.59, which correspond to sulfite/adrenaline ratios of 0.5, 0.68, 0.84, 1.0 and 1.18, respectively. For the ease of reference to the general description and claims of this specification, the said values correspond to a molar ratio of adrenaline to sulfite of 2.0, 1.47, 1.19, 1.0 and 0.85, respectively.
(§2) Each sample solution was split into two lots. For each sample solution, one lot was placed at the accelerated test temperature of 60° C., protected from light and the other lot placed in a photo-stability cabinet at 25° C. which provided 13400 lux visible light, 1.50 W·h/m^2 UV. Samples were pulled from both conditions at 0, 7, 14 and 28 days At each pull point, the appearance of the test solution was assessed, the pH measured and the adrenaline content measured together with impurities.

[2] = 1.0 mg/ml adrenaline (tartrate), pH 3.4, 0.6% sodium chloride; 25° C., 13400 lux visible light, 1.50 W·h/m^2 UV, up to 28 days
Protocol: as §1, §2

[3] = 60° C., weeks 0-4; FIGS. 8 and 9
Protocol: (§3) A 1.1 mg/ml solution of adrenaline (6.004×10^−3 M), in the form of the tartrate, pH 3.4 and containing 0.6% sodium chloride was used. A range of metabisulfite antioxidant concentrations, with and without admixture of 0.25% di-sodium edetate as chelating agent were tested. The metabisulfite/adrenaline molar ratios tested were 0.1, 0.2, 0.5, 1.0 and 1.5, which correspond to sulfite/adrenaline ratios of 0.2, 0.4, 1.0, 2.0 and 3.0, respectively. For the ease of reference to the general description and claims of this specification, the said values correspond to a molar ratio of adrenaline to sulfite of 5.0, 2.5, 1.0, 0.5 and 0.33, respectively.
The accelerated test temperature was 60° C., protected from light, and samples were pulled at 0, 7, 14, 21 and 28 days. At each pull point, the appearance of the test solution was assessed, the pH measured and the solution assayed for adrenaline content. The appearance of degradation products was noted as area %. […]
Each sample solution was split into two lots. […] Samples were pulled from both conditions at 0, 7, 14 and 28 days At each pull point, the appearance of the test solution was assessed, the pH measured and the adrenaline content measured together with impurities.

[4] = auto-oxidation rate increases with pH
[5] = 0.25% di-sodium edetate admixed; 60° C., up to 28 days; at the metabisulfite levels contemplated
Protocol: as §3
The accelerated test temperature was 60° C., protected from light, and samples were pulled at 0, 7, 14, 21 and 28 days. At each pull point, the appearance of the test solution was assessed, the pH measured and the solution assayed for adrenaline content. The appearance of degradation products was noted as area %.
[adr]^+ relates to samples containing 0.025% di-sodium edetate, whereas [adr] relates to samples containing no chelating agent.

Compound | best metabisulfite:adrenaline ratio on the basis of total impurities from heat stress ([1]; 1.0 mg/ml adrenaline (tartrate), pH 3.4, 0.6% sodium chloride, 60° C., up to 28 days) | first choice of metabisulfite content with respect to adrenaline ([1]; considering both stresses (thermal 60° C. and photo-stress), loss of adrenaline, FIGS. 4 and 5) | best metabisulfite:adrenaline ratio on the basis of total impurities from photo-stress [2] | optimum sulfite:adrenaline ratio [3] | pH for maximum stability of epinephrine in solution [4] | advantage of chelating agent for adrenaline solution stability [5]
CNC[C@H](O)c1ccc(O)c(O)c1 [epinephrine, (R)-4-(1-hydroxy-2-(methylamino)ethyl)benzene-1,2-diol] | 0.42 | half molar | 0.5 | about 1.0 | about 3.4 | 
O=C([O-])CN(CCN(CC(=O)[O-])CC(=O)O)CC(=O)O.[Na+].[Na+] [di-sodium edetate] |  |  |  |  |  | no advantage
